According to patent US20160009693A1, “HERBICIDAL COMPOUNDS” (SYNGENTA LIMITED, priority 2013, published 2016):

Assays:
Format in all cases: in vivo
Settings in all cases: evaluated after 13 days
[1] = test system: Amaranthus retoflexus (AMARE); test: Herbicidal glasshouse test, pre-emergence, AMARE
Description: (§1) Seeds of a variety of test species are sown in standard soil in pots (Alopecurus myosuroides (ALOMY), Setaria faberi (SETFA), Echinochloa crus-galli (ECHCG), Solanum nigrum (SOLNI), Amaranthus retoflexus (AMARE), Ipomoea hederacea (IPOHE)). After cultivation for one day (pre-emergence) or after 8 days cultivation (post-emergence) under controlled conditions in a glasshouse (at 24/16° C., day/night; 14 hours light; 65% humidity), the plants are sprayed with an aqueous spray solution derived from the formulation of the technical active ingredient in acetone / water (50:50) solution containing 0.5% Tween 20 (polyoxyethelyene sorbitan monolaurate, CAS RN 9005-64-5). […] The test plants are then grown in a glasshouse under controlled conditions in a glasshouse (at 24/16° C., day/night; 14 hours light; 65% humidity) and watered twice daily. After 13 days for pre and post-emergence, the test is evaluated for the percentage damage caused to the plant. The biological activities are shown in the following table on a five point scale (5=80-100%; 4=60-79%; 3=40-59%; 2=20-39%; 1=0-19%).

Setaria faberi (SETFA) [2] = test: Herbicidal glasshouse test, post-emergence, SETFA
Description: as §1

[3] = test system: Echinochloa crus-galli (ECHCG); test: Herbicidal glasshouse test, post-emergence, ECHCG
Description: as §1

[4] = test system: Alopecurus myosuroides (ALOMY); test: Herbicidal glasshouse test, pre-emergence, ALOMY
Description: as §1

Solanum nigrum (SOLNI) [5] = test: Herbicidal glasshouse test, pre-emergence, SOLNI
Description: as §1

Setaria faberi (SETFA) [6] = test: Herbicidal glasshouse test, pre-emergence, SETFA
Description: as §1

[7] = test system: Ipomoea hederacea (IPOHE); test: Herbicidal glasshouse test, pre-emergence, IPOHE
Description: as §1

[8] = test system: Echinochloa crus-galli (ECHCG); test: Herbicidal glasshouse test, pre-emergence, ECHCG
Description: as §1

[9] = test system: Ipomoea hederacea (IPOHE); test: Herbicidal glasshouse test, post-emergence, IPOHE
Description: as §1

Solanum nigrum (SOLNI) [10] = test: Herbicidal glasshouse test, post-emergence, SOLNI
Description: as §1

[11] = test system: Alopecurus myosuroides (ALOMY); test: Herbicidal glasshouse test, post-emergence, ALOMY
Description: as §1

[12] = test system: Amaranthus retoflexus (AMARE); test: Herbicidal glasshouse test, post-emergence, AMARE
Description: as §1

| Compound | PRE Application AMARE, percentage damage (five point scale) ([1]; applied at 1000 g/h) | POST Application SETFA, percentage damage (five point scale) (Setaria faberi (SETFA) [2]; applied at 1000 g/h) | POST Application ECHCG, percentage damage (five point scale) ([3]; applied at 1000 g/h) | PRE Application ALOMY, percentage damage (five point scale) ([4]; applied at 1000 g/h) | PRE Application SOLNI, percentage damage (five point scale) (Solanum nigrum (SOLNI) [5]; applied at 1000 g/h) | PRE Application SETFA, percentage damage (five point scale) (Setaria faberi (SETFA) [6]; applied at 1000 g/h) | PRE Application IPOHE, percentage damage (five point scale) ([7]; applied at 1000 g/h) | PRE Application ECHCG, percentage damage (five point scale) ([8]; applied at 1000 g/h) | POST Application IPOHE, percentage damage (five point scale) ([9]; applied at 1000 g/h) | POST Application SOLNI, percentage damage (five point scale) (Solanum nigrum (SOLNI) [10]; applied at 1000 g/h) | POST Application ALOMY, percentage damage (five point scale) ([11]; applied at 1000 g/h) | POST Application AMARE, percentage damage (five point scale) ([12]; applied at 1000 g/h) | other results |
| --- | --- | --- | --- | --- | --- | --- | --- | --- | --- | --- | --- | --- | --- |
| C=C(C)Cn1c(=O)c(C(=O)Nc2nnnn2C)nn(C)c1=O [Compound 1.091] |  |  |  |  |  |  |  |  |  |  |  |  | PRE Application AMARE, percentage damage (five point scale) ([1]; applied at 250 g/ha): 5 (5=80-100%); POST Application SETFA, percentage damage (five point scale) (Setaria faberi (SETFA) [2]; applied at 250 g/ha): 4 (4=60-79%); POST Application ECHCG, percentage damage (five point scale) ([3]; applied at 250 g/ha): 5 (5=80-100%); PRE Application ALOMY, percentage damage (five point scale) ([4]; applied at 250 g/ha): 4 (4=60-79%); PRE Application SOLNI, percentage damage (five point scale) (Solanum nigrum (SOLNI) [5]; applied at 250 g/ha): 5 (5=80-100%); PRE Application SETFA, percentage damage (five point scale) (Setaria faberi (SETFA) [6]; applied at 250 g/ha): 4 (4=60-79%); PRE Application IPOHE, percentage damage (five point scale) ([7]; applied at 250 g/ha): 4 (4=60-79%); PRE Application ECHCG, percentage damage (five point scale) ([8]; applied at 250 g/ha): 5 (5=80-100%); POST Application IPOHE, percentage damage (five point scale) ([9]; applied at 250 g/ha): 5 (5=80-100%); POST Application SOLNI, percentage damage (five point scale) (Solanum nigrum (SOLNI) [10]; applied at 250 g/ha): 5 (5=80-100%); POST Application ALOMY, percentage damage (five point scale) ([11]; applied at 250 g/ha): 4 (4=60-79%); POST Application AMARE, percentage damage (five point scale) ([12]; applied at 250 g/ha): 5 (5=80-100%) |
| C=CCn1nc(C(=O)Nc2nnnn2C)c(=O)n(-c2cccc(F)c2)c1=O [Compound 1.007] | 5 (5=80-100%) | 5 (5=80-100%) | 5 (5=80-100%) | 2 (2=20-39%) | 5 (5=80-100%) | 1 (1=0-19%) | 5 (5=80-100%) | 5 (5=80-100%) | 5 (5=80-100%) | 5 (5=80-100%) | 5 (5=80-100%) | 5 (5=80-100%) |  |
| Cn1nnnc1NC(=O)c1nn(C)c(=O)n(Cc2ccc(C(F)(F)F)cc2)c1=O [Compound 1.057] | 5 (5=80-100%) | 1 (1=0-19%) | 4 (4=60-79%) | 5 (5=80-100%) | 3 (3=40-59%) | 1 (1=0-19%) | 4 (4=60-79%) | 5 (5=80-100%) | 5 (5=80-100%) | 5 (5=80-100%) | 5 (5=80-100%) | 5 (5=80-100%) |  |
| Cn1nnnc1NC(=O)c1nn(C)c(=O)n(Cc2ccccc2Cl)c1=O [Compound 1.059] | 5 (5=80-100%) | 4 (4=60-79%) | 4 (4=60-79%) | 5 (5=80-100%) | 5 (5=80-100%) | 2 (2=20-39%) | 5 (5=80-100%) | 5 (5=80-100%) | 5 (5=80-100%) | 5 (5=80-100%) | 5 (5=80-100%) | 5 (5=80-100%) |  |
| Cn1nnnc1NC(=O)c1nn(C)c(=O)n(-c2cccc(Cl)c2)c1=O [Compound 1.019] | 5 (5=80-100%) | 5 (5=80-100%) | 5 (5=80-100%) | 5 (5=80-100%) | 5 (5=80-100%) | 5 (5=80-100%) | 5 (5=80-100%) | 5 (5=80-100%) | 5 (5=80-100%) | 5 (5=80-100%) | 5 (5=80-100%) | 5 (5=80-100%) |  |
| Cc1cccc(-n2c(=O)c(C(=O)Nc3nnnn3C)nn(C)c2=O)c1 [Compound 1.025] | 5 (5=80-100%) | 5 (5=80-100%) | 5 (5=80-100%) | 5 (5=80-100%) | 5 (5=80-100%) | 5 (5=80-100%) | 5 (5=80-100%) | 5 (5=80-100%) | 5 (5=80-100%) | 5 (5=80-100%) | 5 (5=80-100%) | 5 (5=80-100%) |  |
| Cc1cc(-n2c(=O)c(C(=O)Nc3nnnn3C)nn(C)c2=O)ccc1F [Compound 1.037] | 5 (5=80-100%) | 5 (5=80-100%) | 5 (5=80-100%) | 5 (5=80-100%) | 5 (5=80-100%) | 5 (5=80-100%) | 5 (5=80-100%) | 5 (5=80-100%) | 5 (5=80-100%) | 5 (5=80-100%) | 5 (5=80-100%) | 5 (5=80-100%) |  |
| Cn1nnnc1NC(=O)c1nn(C)c(=O)n(-c2ccc(OC(F)(F)F)cc2)c1=O [Compound 1.039] | 5 (5=80-100%) | 5 (5=80-100%) | 5 (5=80-100%) | 5 (5=80-100%) | 5 (5=80-100%) | 5 (5=80-100%) | 5 (5=80-100%) | 5 (5=80-100%) | 5 (5=80-100%) | 5 (5=80-100%) | 5 (5=80-100%) | 5 (5=80-100%) |  |
| Cn1nnnc1NC(=O)c1nn(C)c(=O)n(-c2ccccc2)c1=O [Compound 1.002] | 5 (5=80-100%) | 5 (5=80-100%) | 5 (5=80-100%) | 5 (5=80-100%) | 5 (5=80-100%) | 5 (5=80-100%) | 5 (5=80-100%) | 5 (5=80-100%) | 5 (5=80-100%) | 5 (5=80-100%) | 5 (5=80-100%) | 5 (5=80-100%) |  |
